Values of other authors in PubChem BioAssay AID1259409 (Chemical Carcinogenesis Research Information System (CCRIS), 2018).

Tested on: rodent chemically induced tumor inhibition, incidence and multiplicity
Assay: CCRIS tumor inhibitor studies
Conditions: Species: MOUSE

SMILES | tumour outcome (control, treated, inhibition, significance) (Carcinogen: BENZO[A]PYRENE, 50-32-8, Dose [Inhibitor]: 1000 PPM IN DIET CONTAINING 5% CORN OIL BEGINNING 1 WK PRIOR TO 1ST CARCINOGEN TREATMENT AND CONTINUING FOR 18 WK (STUDY, Route [Inhibitor]: ORAL, Strain/Sex: STRAIN-A/FEMALE, Target Tissue: Type of Lesion: FORESTOMACH: SQUAMOUS CELL PAPILLOMA, Dose [Carcinogen]: 3 MG IN 0.25 ML CORN OIL AT 10 AND 12 WK OF AGE, Promoter: NONE USED) | tumour outcome (control, treated, inhibition, significance) (Carcinogen: BENZO[A]PYRENE, 50-32-8, Dose [Inhibitor]: 1000 PPM IN DIET CONTAINING 5% CORN OIL BEGINNING 1 WK PRIOR TO 1ST CARCINOGEN TREATMENT AND CONTINUING FOR 18 WK (STUDY, Route [Inhibitor]: ORAL, Strain/Sex: STRAIN-A/FEMALE, Target Tissue: Type of Lesion: LUNG: ADENOMA, Dose [Carcinogen]: 3 MG IN 0.25 ML CORN OIL AT 10 AND 12 WK OF AGE, Promoter: NONE USED) | tumour outcome (control, treated, inhibition, significance) (Carcinogen: BENZO[A]PYRENE, 50-32-8, Dose [Inhibitor]: 1500 PPM IN DIET CONTAINING 5% CORN OIL BEGINNING 1 DAY POST LAST CARCINOGEN DOSE AND CONTINUING FOR 12 WK (STUDY DURATI, Route [Inhibitor]: ORAL, Strain/Sex: STRAIN-A/FEMALE, Target Tissue: Type of Lesion: LUNG: ADENOMA, Dose [Carcinogen]: 3 MG IN 0.25 ML CORN OIL AT 6 AND 8 WK OF AGE, Promoter: NONE USED) | tumour outcome (control, treated, inhibition, significance) (Carcinogen: BENZO[A]PYRENE, 50-32-8, Dose [Inhibitor]: 1500 PPM IN DIET CONTAINING 5% CORN OIL BEGINNING 1 WK POST LAST CARCINOGEN DOSE AND CONTINUING FOR 12 WK (STUDY DURATIO, Route [Inhibitor]: ORAL, Strain/Sex: STRAIN-A/FEMALE, Target Tissue: Type of Lesion: FORESTOMACH: SQUAMOUS CELL PAPILLOMA, Dose [Carcinogen]: 3 MG IN 0.25 ML CORN OIL AT 6 AND 8 WK OF AGE, Promoter: NONE USED) | tumour outcome (control, treated, inhibition, significance) (Carcinogen: BENZO[A]PYRENE, 50-32-8, Dose [Inhibitor]: 1500 PPM IN DIET CONTAINING 5% CORN OIL BEGINNING 4 D POST LAST CARCINOGEN DOSE AND CONTINUING FOR 12 WK (STUDY DURATION, Route [Inhibitor]: ORAL, Strain/Sex: STRAIN-A/FEMALE, Target Tissue: Type of Lesion: FORESTOMACH: SQUAMOUS CELL PAPILLOMA, Dose [Carcinogen]: 3 MG IN 0.25 ML CORN OIL AT 6 AND 8 WK OF AGE, Promoter: NONE USED) | tumour outcome (control, treated, inhibition, significance) (Carcinogen: BENZO[A]PYRENE, 50-32-8, Dose [Inhibitor]: 1500 PPM IN DIET CONTAINING 5% CORN OIL BEGINNING 4 D POST LAST CARCINOGEN DOSE AND CONTINUING FOR 12 WK (STUDY DURATION, Route [Inhibitor]: ORAL, Strain/Sex: STRAIN-A/FEMALE, Target Tissue: Type of Lesion: LUNG: ADENOMA, Dose [Carcinogen]: 3 MG IN 0.25 ML CORN OIL AT 6 AND 8 WK OF AGE, Promoter: NONE USED) | tumour outcome (control, treated, inhibition, significance) (Carcinogen: BENZO[A]PYRENE, 50-32-8, Dose [Inhibitor]: 1500 PPM IN DIET CONTAINING 5% CORN OIL BEGINNING 7 D POST LAST CARCINOGEN DOSE AND CONTINUING FOR 12 WK (STUDY DURATION, Route [Inhibitor]: ORAL, Strain/Sex: STRAIN-A/FEMALE, Target Tissue: Type of Lesion: FORESTOMACH: SQUAMOUS CELL PAPILLOMA, Dose [Carcinogen]: 3 MG IN 0.25 ML CORN OIL AT 6 AND 8 WK OF AGE, Promoter: NONE USED) | tumour outcome (control, treated, inhibition, significance) (Carcinogen: BENZO[A]PYRENE, 50-32-8, Dose [Inhibitor]: 1500 PPM IN DIET CONTAINING 5% CORN OIL BEGINNING 7 D POST LAST CARCINOGEN DOSE AND CONTINUING FOR 12 WK (STUDY DURATION, Route [Inhibitor]: ORAL, Strain/Sex: STRAIN-A/FEMALE, Target Tissue: Type of Lesion: LUNG: ADENOMA, Dose [Carcinogen]: 3 MG IN 0.25 ML CORN OIL AT 6 AND 8 WK OF AGE, Promoter: NONE USED) | tumour outcome (control, treated, inhibition, significance) (Carcinogen: BENZO[A]PYRENE, 50-32-8, Dose [Inhibitor]: 1500 PPM IN DIET CONTAINING 5% CORN OIL BEGINNING ON DAY OF LAST CARCINOGEN DOSE AND CONTINUING FOR 12 WK (STUDY DURATIO, Route [Inhibitor]: ORAL, Strain/Sex: STRAIN-A/FEMALE, Target Tissue: Type of Lesion: FORESTOMACH: SQUAMOUS CELL PAPILLOMA, Dose [Carcinogen]: 3 MG IN 0.25 ML CORN OIL AT 6 AND 8 WK OF AGE, Promoter: NONE USED) | tumour outcome (control, treated, inhibition, significance) (Carcinogen: BENZO[A]PYRENE, 50-32-8, Dose [Inhibitor]: 1500 PPM IN DIET CONTAINING 5% CORN OIL BEGINNING ON DAY OF LAST CARCINOGEN DOSE AND CONTINUING FOR 12 WK (STUDY DURATIO, Route [Inhibitor]: ORAL, Strain/Sex: STRAIN-A/FEMALE, Target Tissue: Type of Lesion: LUNG: ADENOMA, Dose [Carcinogen]: 3 MG IN 0.25 ML CORN OIL AT 6 AND 8 WK OF AGE, Promoter: NONE USED) | tumour outcome (control, treated, inhibition, significance) (Carcinogen: BENZO[A]PYRENE, 50-32-8, Dose [Inhibitor]: 2000 PPM IN DIET CONTAINING 5% CORN OIL BEGINNING 1 WK PRIOR TO 1ST CARCINOGEN TREATMENT AND CONTINUING FOR 18 WK (STUDY, Route [Inhibitor]: ORAL, Strain/Sex: STRAIN-A/FEMALE, Target Tissue: Type of Lesion: FORESTOMACH: SQUAMOUS CELL PAPILLOMA, Dose [Carcinogen]: 3 MG IN 0.25 ML CORN OIL AT 10 AND 12 WK OF AGE, Promoter: NONE USED) | tumour outcome (control, treated, inhibition, significance) (Carcinogen: BENZO[A]PYRENE, 50-32-8, Dose [Inhibitor]: 2000 PPM IN DIET CONTAINING 5% CORN OIL BEGINNING 1 WK PRIOR TO 1ST CARCINOGEN TREATMENT AND CONTINUING FOR 18 WK (STUDY, Route [Inhibitor]: ORAL, Strain/Sex: STRAIN-A/FEMALE, Target Tissue: Type of Lesion: LUNG: ADENOMA, Dose [Carcinogen]: 3 MG IN 0.25 ML CORN OIL AT 10 AND 12 WK OF AGE, Promoter: NONE USED) | tumour outcome (control, treated, inhibition, significance) (Carcinogen: 7,12-DIMETHYLBENZ[A]ANTHRACENE, 57-97-6, Dose [Inhibitor]: 0, 16 NMOL 2/WK 1 HR PRIOR TO EACH PROMOTER DOSE FOR 20 WK (STUDY DURATION: 20 WK), Route [Inhibitor]: DERMAL, Strain/Sex: ICR/FEMALE, Target Tissue: Type of Lesion: SKIN: TUMOR, Dose [Carcinogen]: 0.19 UMOL ONCE, Promoter: 12-0-TETRADECANOYLPHORBOL-13-ACETATE, 16561-29-8)
CCCN(CCC)c1c([N+](=O)[O-])cc(C(F)(F)F)cc1[N+](=O)[O-] | 100%, 84%, 16%, not significant | 97%, 96%, 1%, not significant | 80%, 32%, 60%, not significant | 100%, 88%, 12%, not significant | 92%, 80%, 13%, not significant | 72%, 40%, 44%, not significant | 100%, 92%, 8%, not significant | 72%, 60%, 17%, not significant | 88%, 100%, -14%, not significant | 76%, 52%, 32%, not significant | 100%, 63%, 37%, not calculated | 97%, 74%, 24%, not calculated | –
O=C(/C=C/c1ccc(O)c(C2C(c3ccc(O)cc3)Oc3cc(O)ccc3C2c2cc(C3OC(c4ccc(O)cc4)C(C(=O)c4ccc(O)cc4O)C3Cc3ccc(O)cc3)c(O)cc2O)c1)c1ccc(O)cc1O (stereo not drawn) | – | – | – | – | – | – | – | – | – | – | – | – | 70%, 45%, 36%, not calculated
